Laboratory results taken from patent publication US6962912B2, “Substituted pyrazolo[4,3-e]diazepines, pharmaceutical compositions containing them, use as medicinal products and processes for preparing them” (Warner-Lambert LLC, priority 2000, dated 2005).

Experiments:
[1] = target: PDE4; experiment: Inhibition of PDE4 (cytosolic enzyme preparation from U937 line), compared with rolipram; format: biochemical, human; settings: PDE4 enzyme preparation obtained from the U937 line

SMILES | IC50 [1] [nM] | melting point [°C]
CCC(C)c1nn(CC)c2c1N=C(c1ccc(OC)cc1)CNC2=O (racemic) [Example 89, (±)3-sec-Butyl-1-ethyl-5-(4-methoxyphenyl)-6,7-dihydro-1H-pyrazolo[4,3-e][1,4]diazepin-8-one] | 33 | 50
CCCn1nc(C(C)CC)c2c1C(=O)NCC(c1ccc(OC)cc1)=N2 (racemic) [Example 90, (±)3-sec-Butyl-5-(4-methoxyphenyl)-1-propyl-6,7-dihydro-1H-pyrazolo[4,3-e][1,4]diazepin-8-one] | 193 | 85
CCn1nc(-c2ccccc2)c2c1C(=O)NCC(c1ccccc1)=N2 [Example 4, 1-Ethyl-3,5-diphenyl-6,7-dihydro-1H-pyrazolo[4,3-e][1,4]diazepin-8-one] | 8.4 | –
CCOC(=O)c1nn(CC)c2c1N=C(c1ccccc1)CNC2=O [Example 5, Ethyl 1-ethyl-8-oxo-5-phenyl-1,6,7,8-tetrahydropyrazolo-[4,3-e][1,4]diazepin-3-carboxylate] | 390 | –
Cc1nn(CC(F)(F)F)c2c1N=C(c1ccccc1)CNC2=O [Example 30, 3-Methyl-5-phenyl-1-(2.2.2-trifluoroethyl)-6,7-dihydro-1H-pyrazolo[4,3-e][1,4]diazepin-8-one] | 300 | –
CCn1nc(C(C)C)c2c1C(=O)NCC(c1ccc(N3CCCC3)cc1)=N2 [Example 38, 1-Ethyl-3-isopropyl-5-(4-pyrrolidin-1-yl-phenyl)-6,7-dihydro-1H-pyrazolo[4,3-e][1,4]diazepin-8-one] | 650 | –
CCCn1nc(C(C)C)c2c1C(=O)NCC(c1ccc(OC)cc1OC)=N2 [Example 43, 5-(2,4-Dimethoxyphenyl)-3-isopropyl-1-propyl-6,7-dihydro-1H-pyrazolo[4,3-e][1,4]diazepin-8-one] | 48 | –
CCn1nc(C(C)(C)C)c2c1C(=O)NCC(C(C)(C)C)=N2 [Example 44, 3,5-Di-tert-butyl-1-ethyl-6,7-dihydro-1H-pyrazolo[4,3-e][1,4]diazepin-8-one] | 1.1 | –
CCn1nc(C(C)(C)C)c2c1C(=O)NCC(c1ccc(OC)cc1OC)=N2 [Example 47, 3-tert-Butyl-5-(2,4-dimethoxyphenyl)-1-ethyl-6,7-dihydro-1H-pyrazolo[4,3-e][1,4]diazepin-8-one] | 21 | –
CCCn1nc(C(C)(C)C)c2c1C(=O)NCC(C(C)(C)C)=N2 [Example 48, 3,5-Di-tert-butyl-1-propyl-6,7-dihydro-1H-pyrazolo[4,3-e][1,4]diazepin-8-one] | 8.1 | –
CCCn1nc(C(C)(C)C)c2c1C(=O)NCC(c1ccc(C)cc1)=N2 [Example 49, 3-tert-Butyl-1-propyl-5-p-tolyl-6,7-dihydro-1H-pyrazolo[4,3-e][1,4]diazepin-8-one] | 32 | –
CCCn1nc(C(C)(C)C)c2c1C(=O)NCC(c1ccc(C#N)cc1)=N2 [Example 50, 4-(3-tert-Butyl-8-oxo-1-propyl-1,6,7,8-tetrahydro-1H-pyrazolo[4,3-e][1,4]diazepin-5-yl)benzonitrile] | 16 | –
CCn1nc(C)c2c1C(=O)NCC(c1ccc(N(S(=O)(=O)c3ccccc3)S(=O)(=O)c3ccccc3)cc1)=N2 [Example 56, N-[4-(1-Ethyl-3-methyl-8-oxo-1,6,7,8-tetrahydro-pyrazolo[4,3-e][1,4]diazepin-5-yl)phenyl]-(phenylsulphonyl)benzenesulphonamide] | 500 | –
CCn1nc(C(C)C)c2c1C(=O)NCC(c1ccc(C(F)(F)F)cc1)=N2 [Example 61, 1-Ethyl-3-isopropyl-5-(4-trifluoromethylphenyl)-6,7-dihydro-1H-pyrazolo[4,3-e][1,4]diazepin-8-one] | 7.9 | –
CCn1nc(C)c2c1C(=O)NCC(c1ccc(C(F)(F)F)cc1)=N2 [Example 62, 1-Ethyl-3-methyl-5-(4-trifluoromethylphenyl)-6,7-dihydro-1H-pyrazolo[4,3-e][1,4]diazepin-8-one] | 260 | –
CCn1nc(CC2CCCCC2)c2c1C(=O)NCC(c1ccncc1)=N2 [Example 76, 3-Cyclohexylmethyl-1-ethyl-5-pyrid-4-yl-6,7-dihydro-1H-pyrazolo[4,3-e][1,4]diazepin-8-one] | 8.2 | –
CCCn1nc(CC2CCCCC2)c2c1C(=O)NCC(c1ccncc1)=N2 [Example 78, 3-Cyclohexylmethyl-1-propyl-5-pyrid-4-yl-6,7-dihydro-1H-pyrazolo[4,3-e][1,4]diazepin-8-one] | 21 | –
CCn1nc(C)c2c1C(=[SH]c1ccc(OC)cc1)NCC=N2 [Example 83, 1-Ethyl-S-(4-methoxyphenyl)-3-methyl-6,7-dihydro-1H-pyrazolo[4,3-e][1,4]diazepin-8-thione] | – | 209

Continued by falling IC50 [1], values first:

IC50 [1] [nM] | melting point [°C] | SMILES
1580 | – | CCOCc1nn(CC)c2c1N=C(c1ccccc1)CNC2=O [Example 97, 3-Ethoxymethyl-1-ethyl-5-phenyl-6,7-dihydro-1H-pyrazolo-[4,3-e][1,4]diazepin-8-one]
1290 | – | CCn1nc(C)c2c1C(=O)NCC(CCC(=O)OC)=N2 [Example 10, Methyl 3-(1-ethyl-3-methyl-8-oxo-1,6,7,8-tetrahydro-pyrazolo[4,3-e][1,4]diazepin-5-yl)propanoate]
510 | – | C=CCn1nc(C)c2c1C(=O)NCC(c1ccccc1)=N2 [Example 59, 1-Allyl-3-methyl-5-phenyl-6,7-dihydro-1H-pyrazolo[4,3-e][1,4]diazepin-8-one]
210 | – | CCCn1nc(CC2CCCCC2)c2c1C(=O)NCC(c1ccccc1)=N2 [Example 77, 3-Cyclohexylmethyl-5-phenyl-1-propyl-6,7-dihydro-1H-pyrazolo[4,3-e][1,4]diazepin-8-one]
140 | – | Cc1nn(CC2CC2)c2c1N=C(c1ccccc1)CNC2=O [Example 58, 1-Cyclopropylmethyl-3-methyl-5-phenyl-6,7-dihydro-1H-pyrazolo[4,3-e][1,4]diazepin-8-one]
130 | 223 | CCn1nc(C)c2c1C(=O)NCC(c1ccc(Br)cc1)=N2 [Example 7, 5-(4-Bromophenyl)-1-ethyl-3-methyl-6,7-dihydro-1H-pyrazolo[4,3-e][1,4]diazepin-8-one]
60 | – | CCCn1nc(C(C)(C)C)c2c1C(=O)NCC(c1ccc(OC)cc1OC)=N2 [Example 51, 3-tert-Butyl-5-(2,4-dimethoxyphenyl)-1-propyl-6,7-dihydro-1H-pyrazolo[4,3-e][1,4]diazepin-8-one]
11 | – | CCCn1nc(C(C)CC)c2c1C(=O)NCC(c1ccccc1)=N2 (racemic) [Example 70, (±)3-sec-Butyl-5-phenyl-1-propyl-6,7-dihydro-1H-pyrazolo-[4,3-e][1,4]diazepin-8-one]
11 | – | CCn1nc(CC2CCCCC2)c2c1C(=O)NCC(c1ccccc1)=N2 [Example 79, 3-Cyclohexylmethyl-1-ethyl-5-phenyl-6,7-dihydro-1H-pyrazolo[4,3-e][1,4]diazepin-8-one]
5.4 | – | CCCn1nc(C2CCCCC2)c2c1C(=O)NCC(c1ccccc1)=N2 [Example 74, 3-Cyclohexyl-5-phenyl-1-propyl-6,7-dihydro-1H-pyrazolo-[4,3-e][1,4]diazepin-8-one]
1.8 | – | CCn1nc(C2CCCCC2)c2c1C(=O)NCC(c1ccccc1)=N2 [Example 72, 3-Cyclohexyl-1-ethyl-5-phenyl-6,7-dihydro-1H-pyrazolo-[4,3-e][1,4]diazepin-8-one]
